Test results reported in US10294202B2, “Pyrrolidinones as herbicides” (FMC Corporation, priority 2013, dated 2019).

Assays:
blackgrass = assay: Test A postemergence herbicide test; assay type: in vivo, Alopecurus myosuroides
In short: (§1)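 Injury was rated visually about 10 days after treatment on a 0 (no effect) to 100 (complete control) scale, compared with untreated plants. Test chemicals were sprayed postemergence onto greenhouse plants 2–10 cm high at one to two leaves, grown in a loam–sand blend.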

rice = assay: Test B flooded paddy test; assay type: in vivo, Oryza sativa; conditions: 500 g ai/ha, Flood; scale of 0 to 100 where 0 is no effect and 100 is complete control
In short: (§2)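 Treatment was made at the 2-leaf stage by dosing the standing floodwater, kept 3 cm above soil level for the whole test. Greenhouse exposure lasted 13 to 15 days. Response is a visual percent rating relative to controls, where a dash indicates no test result.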

galium = assay: Test A postemergence herbicide test; assay type: in vivo, Galium aparine
In short: as §1

sedge, umbrella = assay: Test B flooded paddy test; assay type: in vivo, Cyperus difformis; conditions: 500 g ai/ha, Flood; scale of 0 to 100 where 0 is no effect and 100 is complete control
In short: as §2

wheat = assay: Test A pre-/postemergence herbicide test; assay type: in vivo, Triticum aestivum; conditions: Postemergence
In short: (§3)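 Formulated compound (non-phytotoxic solvent, surfactant) sprayed pre- onto soil of seeded loam/sand pots or post- onto seedlings at 1–2 leaves; ~10 d greenhouse; 0–100 visual control rating versus untreated.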

ragweed = assay: Test A pre-/postemergence herbicide test; assay type: in vivo, Ambrosia elatior
In short: as §3

kochia = assay: Test A pre-/postemergence herbicide test; assay type: in vivo, Kochia scoparia
In short: as §3

corn = assay: Test A pre-/postemergence herbicide test; assay type: in vivo, Zea mays; conditions: Postemergence
In short: as §3

giant foxtail = assay: Test A pre-/postemergence herbicide test; assay type: in vivo, Setaria faberii
In short: as §3

ducksalad = assay: Test B flooded paddy test; assay type: in vivo, Heteranthera limosa; conditions: 500 g ai/ha, Flood; scale of 0 to 100 where 0 is no effect and 100 is complete control
In short: as §2

pigweed = assay: Test A pre-/postemergence herbicide test; assay type: in vivo, Amaranthus retroflexus
In short: as §3

barnyardgrass [1] = assay: Test A pre-/postemergence herbicide test; assay type: in vivo, Echinochloa crus-galli
In short: as §3

ryegrass, Italian = assay: Test A pre-/postemergence herbicide test; assay type: in vivo, Lolium multiflorum
In short: as §3

barnyardgrass [2] = assay: Test B flooded paddy test; assay type: in vivo, Echinochloa crus-galli; conditions: 500 g ai/ha, Flood; scale of 0 to 100 where 0 is no effect and 100 is complete control
In short: as §2

[3] = 125 g ai/ha, visual rating on 0 to 100 scale (0 no effect, 100 complete control), approx. 10 days
[4] = 500 g ai/ha, 0 to 100 scale (0 no effect, 100 complete control)
[5] = Postemergence, 125 g ai/ha, visual rating on 0 to 100 scale (0 no effect, 100 complete control), approx. 10 days
[6] = Preemergence, 125 g ai/ha, 0 to 100 scale where 0 is no effect and 100 is complete control
[7] = Preemergence, 500 g ai/ha, visual rating on 0 to 100 scale (0 no effect, 100 complete control)
[8] = Postemergence, 500 g ai/ha, 0 to 100 scale (0 no effect, 100 complete control)
[9] = 125 g ai/ha, 0 to 100 scale, 0 is no effect, 100 is complete control
[10] = 125 g ai/ha, visual rating, 0 to 100 scale, 0 no effect, 100 complete control, approximately 10 days, preemergence
[11] = Postemergence, 125 g ai/ha, 0 to 100 scale, 0 is no effect, 100 is complete control
[12] = preemergence, 500 g ai/ha, 0 to 100 scale, 0 is no effect and 100 is complete control

## O=C1NCC(c2cccc(-n3cccn3)c2)C1C(=O)Nc1cccc(F)c1F (centres unmarked) [Compound 337]
blackgrass; [3]
  Plant response rating, Blackgrass: 0
blackgrass; [4]
  Plant response rating, Blackgrass: 0
rice
  Plant response rating, Rice: 0
galium; [3]
  Plant response rating, Galium: 0
sedge, umbrella
  Plant response rating, Sedge, Umbrella: 0
wheat; [3]
  Plant response rating, Wheat: 0
ragweed; [5]
  Plant response rating, Ragweed: 0
ragweed; [6]
  Plant response rating, Ragweed: 0
ragweed; [7]
  Ragweed plant response rating: 0
kochia; [5]
  Plant response rating, Kochia: 0
kochia; [6]
  Plant response rating, Kochia: 0
kochia; [7]
  Kochia plant response rating: 0
corn; [3]
  Plant response rating, Corn: 0
corn; [4]
  Plant response rating, Corn: 0
Giant foxtail; [5]
  Plant response rating, Foxtail, Giant: 0
Giant foxtail; [8]
  Plant response rating, Foxtail, Giant: 40
Giant foxtail; [6]
  Plant response rating, Foxtail, Giant: 0
Giant foxtail; [7]
  Foxtail, Giant plant response rating: 30
ducksalad
  Plant response rating, Ducksalad: 0
pigweed; [5]
  Plant response rating, Pigweed: 0
pigweed; [6]
  Plant response rating, Pigweed: 0
pigweed; [7]
  Pigweed plant response rating: 0
Barnyardgrass [1]; [5]
  Plant response rating, Barnyardgrass: 0
Barnyardgrass [1]; [8]
  Plant response rating, Barnyardgrass: 50
Barnyardgrass [1]; [6]
  Plant response rating, Barnyardgrass: 0
Barnyardgrass [1]; [7]
  Barnyardgrass plant response rating: 20
ryegrass, Italian; [5]
  Plant response rating, Ryegrass, Italian: 0
ryegrass, Italian; [6]
  Plant response rating, Ryegrass, Italian: 0
ryegrass, Italian; [7]
  Ryegrass, Italian plant response rating: 0
Barnyardgrass [2]
  Plant response rating, Barnyardgrass: 0

## O=C1NCC(c2ccc(Cl)cc2)C1C(=O)Nc1ccccc1C(F)(F)F (centres unmarked) [Compound 219]
blackgrass; [9]
  Plant response rating, Blackgrass: 40
blackgrass; 500 g ai/ha
  Blackgrass plant response rating (0 to 100 scale, 0 is no effect, 100 is complete control): 50
rice
  Plant response rating, Rice: 0
galium; [9]
  Plant response rating, Galium: 30
galium; 500 g ai/ha
  Galium plant response rating (0 to 100 scale, 0 is no effect, 100 is complete control): 60
sedge, umbrella
  Plant response rating, Sedge, Umbrella: 0
wheat; [9]
  Plant response rating, Wheat: 0
wheat; 500 g ai/ha
  Wheat plant response rating (0 to 100 scale, 0 is no effect, 100 is complete control): 0
ragweed; [10]
  Plant response rating, Ragweed: 0
ragweed; [11]
  Plant response rating, Ragweed: 0
ragweed; Postemergence, 500 g ai/ha
  Ragweed plant response rating (0 to 100 scale, 0 is no effect, 100 is complete control): 0
ragweed; [12]
  Plant response rating, Ragweed: 0
kochia; [10]
  Plant response rating, Kochia: 10
kochia; [11]
  Plant response rating, Kochia: 0
kochia; Postemergence, 500 g ai/ha
  Kochia plant response rating (0 to 100 scale, 0 is no effect, 100 is complete control): 10
kochia; [12]
  Plant response rating, Kochia: 70
corn; [9]
  Plant response rating, Corn: 0
corn; 500 g ai/ha
  Corn plant response rating (0 to 100 scale, 0 is no effect, 100 is complete control): 0
Giant foxtail; [10]
  Plant response rating, Foxtail, Giant: 90
Giant foxtail; [11]
  Plant response rating, Foxtail, Giant: 60
Giant foxtail; Postemergence, 500 g ai/ha
  Foxtail, Giant plant response rating (0 to 100 scale, 0 is no effect, 100 is complete control): 80
Giant foxtail; [12]
  Plant response rating, Foxtail, Giant: 90
ducksalad
  Plant response rating, Ducksalad: 100
pigweed; [10]
  Plant response rating, Pigweed: 0
pigweed; [11]
  Plant response rating, Pigweed: 0
pigweed; Postemergence, 500 g ai/ha
  Pigweed plant response rating (0 to 100 scale, 0 is no effect, 100 is complete control): 0
pigweed; [12]
  Plant response rating, Pigweed: 0
Barnyardgrass [1]; [10]
  Plant response rating, Barnyardgrass: 30
Barnyardgrass [1]; [11]
  Plant response rating, Barnyardgrass: 40
Barnyardgrass [1]; Postemergence, 500 g ai/ha
  Barnyardgrass plant response rating (0 to 100 scale, 0 is no effect, 100 is complete control): 50
Barnyardgrass [1]; [12]
  Plant response rating, Barnyardgrass: 60
ryegrass, Italian; [10]
  Plant response rating, Ryegrass, Italian: 0
ryegrass, Italian; [11]
  Plant response rating, Ryegrass, Italian: 0
ryegrass, Italian; Postemergence, 500 g ai/ha
  Ryegrass, Italian plant response rating (0 to 100 scale, 0 is no effect, 100 is complete control): 0
ryegrass, Italian; [12]
  Plant response rating, Ryegrass, Italian: 0
Barnyardgrass [2]
  Plant response rating, Barnyardgrass: 40

## O=C1NCC(c2ccc(Br)c(Br)c2)C1C(=O)Nc1cccc(F)c1F (centres unmarked) [Compound 341]
blackgrass; [3]
  Plant response rating, Blackgrass: 0
blackgrass; [4]
  Plant response rating, Blackgrass: 0
rice
  Plant response rating, Rice: 0
galium; [3]
  Plant response rating, Galium: 0
sedge, umbrella
  Plant response rating, Sedge, Umbrella: 0
wheat; [3]
  Plant response rating, Wheat: 0
ragweed; [5]
  Plant response rating, Ragweed: 0
ragweed; [6]
  Plant response rating, Ragweed: 0
ragweed; [7]
  Ragweed plant response rating: 0
kochia; [5]
  Plant response rating, Kochia: 0
kochia; [6]
  Plant response rating, Kochia: 0
kochia; [7]
  Kochia plant response rating: 0
corn; [3]
  Plant response rating, Corn: 0
corn; [4]
  Plant response rating, Corn: 30
Giant foxtail; [5]
  Plant response rating, Foxtail, Giant: 50
Giant foxtail; [8]
  Plant response rating, Foxtail, Giant: 70
Giant foxtail; [6]
  Plant response rating, Foxtail, Giant: 80
Giant foxtail; [7]
  Foxtail, Giant plant response rating: 90
ducksalad
  Plant response rating, Ducksalad: 0
pigweed; [5]
  Plant response rating, Pigweed: 0
pigweed; [6]
  Plant response rating, Pigweed: 0
pigweed; [7]
  Pigweed plant response rating: 0
Barnyardgrass [1]; [5]
  Plant response rating, Barnyardgrass: 30
Barnyardgrass [1]; [8]
  Plant response rating, Barnyardgrass: 50
Barnyardgrass [1]; [6]
  Plant response rating, Barnyardgrass: 50
Barnyardgrass [1]; [7]
  Barnyardgrass plant response rating: 80
ryegrass, Italian; [5]
  Plant response rating, Ryegrass, Italian: 0
ryegrass, Italian; [6]
  Plant response rating, Ryegrass, Italian: 0
ryegrass, Italian; [7]
  Ryegrass, Italian plant response rating: 0
Barnyardgrass [2]
  Plant response rating, Barnyardgrass: 0

## O=C1NCC(c2ccc(OC(F)F)cc2)C1C(=O)Nc1ccccc1C(F)(F)F (centres unmarked) [Compound 348]
blackgrass; [3]
  Plant response rating, Blackgrass: 20
blackgrass; [4]
  Plant response rating, Blackgrass: 30
rice
  Plant response rating, Rice: 0
galium; [3]
  Plant response rating, Galium: 0
sedge, umbrella
  Plant response rating, Sedge, Umbrella: 0
wheat; [3]
  Plant response rating, Wheat: 0
ragweed; [5]
  Plant response rating, Ragweed: 0
ragweed; [7]
  Ragweed plant response rating: 30
kochia; [5]
  Plant response rating, Kochia: 20
kochia; [6]
  Plant response rating, Kochia: 0
kochia; [7]
  Kochia plant response rating: 70
corn; [3]
  Plant response rating, Corn: 0
corn; [4]
  Plant response rating, Corn: 0
Giant foxtail; [5]
  Plant response rating, Foxtail, Giant: 70
Giant foxtail; [8]
  Plant response rating, Foxtail, Giant: 90
Giant foxtail; [6]
  Plant response rating, Foxtail, Giant: 90
Giant foxtail; [7]
  Foxtail, Giant plant response rating: 90
ducksalad
  Plant response rating, Ducksalad: 100
pigweed; [5]
  Plant response rating, Pigweed: 0
pigweed; [6]
  Plant response rating, Pigweed: 20
pigweed; [7]
  Pigweed plant response rating: 50
Barnyardgrass [1]; [5]
  Plant response rating, Barnyardgrass: 20
Barnyardgrass [1]; [8]
  Plant response rating, Barnyardgrass: 50
Barnyardgrass [1]; [6]
  Plant response rating, Barnyardgrass: 30
Barnyardgrass [1]; [7]
  Barnyardgrass plant response rating: 60
ryegrass, Italian; [5]
  Plant response rating, Ryegrass, Italian: 0
ryegrass, Italian; [6]
  Plant response rating, Ryegrass, Italian: 0
ryegrass, Italian; [7]
  Ryegrass, Italian plant response rating: 0
Barnyardgrass [2]
  Plant response rating, Barnyardgrass: 40

## O=C1NCC(c2cccc(Br)c2)C1C(=O)Nc1ccc(F)cc1F (centres unmarked) [Compound 308]
blackgrass; [3]
  Plant response rating, Blackgrass: 50
blackgrass; [4]
  Plant response rating, Blackgrass: 70
rice
  Plant response rating, Rice: 0
galium; [3]
  Plant response rating, Galium: 0
galium; [4]
  Plant response rating, Galium: 0
sedge, umbrella
  Plant response rating, Sedge, Umbrella: 0
wheat; [3]
  Plant response rating, Wheat: 0
wheat; [4]
  Plant response rating, Wheat: 20
ragweed; [5]
  Plant response rating, Ragweed: 0
ragweed; [8]
  Plant response rating, Ragweed: 0
ragweed; [6]
  Plant response rating, Ragweed: 0
ragweed; [7]
  Ragweed plant response rating: 0
kochia; [5]
  Plant response rating, Kochia: 0
kochia; [8]
  Plant response rating, Kochia: 0
kochia; [6]
  Plant response rating, Kochia: 0
kochia; [7]
  Kochia plant response rating: 0
corn; [3]
  Plant response rating, Corn: 0
corn; [4]
  Plant response rating, Corn: 10
Giant foxtail; [5]
  Plant response rating, Foxtail, Giant: 70
Giant foxtail; [8]
  Plant response rating, Foxtail, Giant: 80
Giant foxtail; [6]
  Plant response rating, Foxtail, Giant: 80
Giant foxtail; [7]
  Foxtail, Giant plant response rating: 90
ducksalad
  Plant response rating, Ducksalad: 90
pigweed; [5]
  Plant response rating, Pigweed: 0
pigweed; [8]
  Plant response rating, Pigweed: 0
pigweed; [6]
  Plant response rating, Pigweed: 0
pigweed; [7]
  Pigweed plant response rating: 0
Barnyardgrass [1]; [5]
  Plant response rating, Barnyardgrass: 70
Barnyardgrass [1]; [8]
  Plant response rating, Barnyardgrass: 70
Barnyardgrass [1]; [6]
  Plant response rating, Barnyardgrass: 70
Barnyardgrass [1]; [7]
  Barnyardgrass plant response rating: 80
ryegrass, Italian; [5]
  Plant response rating, Ryegrass, Italian: 0
ryegrass, Italian; [8]
  Plant response rating, Ryegrass, Italian: 0
ryegrass, Italian; [6]
  Plant response rating, Ryegrass, Italian: 0
ryegrass, Italian; [7]
  Ryegrass, Italian plant response rating: 0
Barnyardgrass [2]
  Plant response rating, Barnyardgrass: 70
